Legend:
[1] = test system: zebra fishes (AB strain Danio rerio); assay: Whitening activity analysis in vivo (zebra fish melanin); details: 20 mM; immersed forty-eight hours
From the text: The test uses zebra fishes (AB strain Danio rerio), in which fish edge is above four months, as test brood fishes, and the fishes are bred in an acrylic water tank having a filter and a circulation system. Water temperature is controlled at 28.5 degrees Celsius, and light-dark cycle is respectively controlled at fourteen and ten hours.
The medicine to be tested must be dissolved in 100% DMSO solution, and finally concentration must also concern DMSO and medicine concentration.
Embryos that have been fertilized for nine hours is taken and injected into a 96 well culture dish, and three embryos and 100 μl Hank's buffer are disposed in each well. 100 μl taken from the prepared medicine is injected into each well, and after adequately and uniformly mixing the mixture, an orifice plate is covered to avoid draining water content away to change the concentration. […]
Obtained fish images are opened by image processing software (Image J 1.43 g; National Institute of Health, Bethesda, Md., U.S.A.), and under ranges where the minimum threshold is set at 0, and where the maximum threshold is set at 85, melanin of each group of zebra fishes is performed with quantitative analysis.

Mushroom tyrosinase = Mushroom tyrosinase inhibition capability analysis; format: biochemical; details: positive control, 100 μM
Protocol: In a 96 well plate, 70 μl PBS, 20 μl specimen solution having different concentrations is added into each pore, and the mixture is uniformly mixed. Next, 10 μl 12U tyrosinase is added to place the plate in the cultivation chest at 37 degrees Celsius to react for thirty minutes. 10 μl 15 mM L-dopa is further added, and after continuously placing the plate in the cultivation chest to react for thirty minutes, the variance of absorbance is measured at 492 nm wavelengths. By taking H2O or 50% EtOH as the control group, the anti-oxidation rate of the object to be tested is obtained by inhibition of tyrosinase % (IT %) as the following formula. When peroxidation rate of lipid inhibition is higher, antioxidative function is stronger. Inhibition of tyrosinase %, IT %=[1−(absorbance of sample at 492 nm)/(absorbance of the control group that is not added with samples at 492 nm)]×100.

Structure (SMILES)	melanin content of zebra fishes [1] [%]	Mushroom tyrosinase inhibition capability (Mushroom tyrosinase) [%]
OC[C@H]1O[C@@H](Oc2ccc(O)cc2)[C@H](O)[C@@H](O)[C@@H]1O [arbutin]	50	–
O=C1O[C@H]([C@@H](O)CO)C(O)=C1O [vitamin C]	–	38.0 ± 0.4

From patent US20140294745A1, “CORAL EXTRACT FOR SKIN WHITENING, MOISTURE RETENTION, ELASTICITY IMPROVEMENT, ANTI-INFLAMMATION AND OCCLUSION OF WOUNDS AND EXTRACTING METHOD THEREOF” (UNI-PRESIDENT BIOTECH CO., LTD., priority 2013, published 2014)
